Drawing on US20040044000A1, “Isoquinoline derivatives as matrix metalloproteinase inhibitors” (priority 2002, published 2004), this text covers IC50 for 29 compounds.

A word on the IC50: it is the point on the concentration scale where inhibition reaches its midpoint.

Where two headings read alike, the source gives them in different places.

Holding throughout (assay type): biochemical
The target in assay [1] is MMP-14 catalytic domain (MMP-14CD) (Homo sapiens, UniProt P50281). The assay is described as follows: Inhibition of MMP-14 catalytic domain (thiopeptolide substrate hydrolysis). An excerpt:
(§1) The assays measure the amount by which a test compound reduces the hydrolysis of a thiopeptolide substrate catalyzed by a matrix metalloproteinase enzyme. Such assays are described in detail by Ye et al., in Biochemistry, 1992;31(45):11231-11235, which is incorporated herein by reference. One such assay is described below in Biological Method 1.
(§2) Thiopeptolide substrates show virtually no decomposition or hydrolysis at or below neutral pH in the absence of a matrix metalloproteinase enzyme. A typical thiopeptolide substrate commonly utilized for assays is Ac-Pro-Leu-Gly-thioester-Leu-Leu-Gly-OEt. A 100 μL assay mixture will contain 50 mM of N-2-hydroxyethylpiperazine-N′-2-ethanesulfonic acid buffer (“HEPES,” pH 7.0), 10 mM CaCl2, 100 μM thiopeptolide substrate, and 1 mM 5,5′-dithio-bis-(2-nitro-benzoic acid) (DTNB). The thiopeptolide substrate concentration may be varied, for example from 10 to 800 μM to obtain Km and Kcat values. The change in absorbance at 405 nm is monitored on a Thermo Max microplate reader (molecular Devices, Menlo Park, Calif.) at room temperature (22° C.). The calculation of the amount of hydrolysis of the thiopeptolide substrate is based on E412=13600 M^−1 cm^−1 for the DTNB-derived product 3-carboxy-4-nitrothiophenoxide. Assays are carried out with and without matrix metalloproteinase inhibitor compounds, and the amount of hydrolysis is compared for a determination of inhibitory activity of the test compounds.
(§3) Test compounds were evaluated at various concentrations in order to determine their respective IC50 values, the micromolar concentration of compound required to cause a 50% inhibition of catalytic activity of the respective enzyme.
(§4) The test described above for the inhibition of MMP-13 may also be adapted and used to determine the ability of the compounds of Formula I to inhibit the matrix metalloproteases MMP-1, MMP-2, MMP-3, MMP-7, MMP-9, MMP-12 and MMP-14.

For assay [2], the target named is T1, MMP-13 catalytic domain (MMP-13CD) (Homo sapiens, UniProt P45452).
T1 construct: use the catalytic domain of the MMP-13 enzyme, namely matrix metalloproteinase-13 catalytic domain (“MMP-13CD”), rather than the corresponding full-length enzyme
As to the kind of experiment: Inhibition of MMP-13 catalytic domain (thiopeptolide substrate hydrolysis).
Excerpt: as §1
Some of the particular methods described below use the catalytic domain of the MMP-13 enzyme, namely matrix metalloproteinase-13 catalytic domain (“MMP-13CD”), rather than the corresponding full-length enzyme, MMP-13. It has been shown previously by Ye Qi-Zhuang, Hupe D., and Johnson L. (Current Medicinal Chemistry, 1996;3:407-418) that inhibitor activity against a catalytic domain of an MMP is predictive of the inhibitor activity against the respective full-length MMP enzyme.
as §2, §3

Assay [3] addresses T2, MMP-12 catalytic domain (MMP-12CD) (Homo sapiens, UniProt P39900).
T2 construct: MMP-3 catalytic domain, MMP-12 catalytic domain, MMP-14 catalytic domain, and MMP-17 catalytic domain
The assay is described as follows: Inhibition of MMP-12 catalytic domain (thiopeptolide substrate hydrolysis).
Excerpt: as §1, §2, §3, §4

The target in assay [4] is MMP-3 catalytic domain (MMP-3CD) (Homo sapiens, UniProt P08254). As to the kind of experiment: Inhibition of MMP-3 catalytic domain (thiopeptolide substrate hydrolysis, MES pH 6.0).
MMP-3 catalytic domain (MMP-3CD), sequence (P08254 100-272 limits assumed, species assumed): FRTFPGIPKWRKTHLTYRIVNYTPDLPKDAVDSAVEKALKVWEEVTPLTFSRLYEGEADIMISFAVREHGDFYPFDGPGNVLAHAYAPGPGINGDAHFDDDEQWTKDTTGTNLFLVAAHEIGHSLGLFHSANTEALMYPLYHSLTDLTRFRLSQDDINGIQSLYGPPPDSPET
Excerpt: as §1, §2, §3
It should be appreciated that the assay buffer used with MMP-3CD was 50 mM N-morpholinoethane sulfonate (“MES”) at pH 6.0 rather than the HEPES buffer at pH 7.0 described above.

Where [5] appears, read: Biological Table 1, read-out: MMP-13CD IC50.
Where [6] appears, read: Biological Table 2, compounds of Example 66, read-out: MMP-13CD IC50.
Where [7] appears, read: read-out: IC50 with MMP-13 catalytic domain.

T2 sequence (P39900 106-263 limits assumed, species assumed): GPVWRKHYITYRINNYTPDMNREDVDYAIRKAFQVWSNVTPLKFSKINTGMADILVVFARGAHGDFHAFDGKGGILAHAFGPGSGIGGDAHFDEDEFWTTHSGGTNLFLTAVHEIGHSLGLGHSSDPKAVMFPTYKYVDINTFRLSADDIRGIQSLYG

For `COc1cccc(CNC(=O)c2ccc3ccn(Cc4ccc(C#N)cc4)c(=O)c3c2)c1` [Example 37, 2-(4-cyanobenzyl)-1-oxo-1,2-dihydro-isoquinoline-7-carboxylic Acid 3-methoxybenzylamide], the 50% inhibitory concentration (IC50) in assay [1] was above 30 µM; in assay [2] (setting [5]), 0.095 µM; in assay [3] it was 13 µM; in assay [4] it was 13 µM. For `COc1cc(CNC(=O)c2ccc3ccn(Cc4ccc(C#N)cc4)c(=O)c3c2)ccn1` [Example 35, 2-(4-cyanobenzyl)-1-oxo-1,2-dihydro-isoquinoline-7-carboxylic Acid (2-methoxypyridin-4-ylmethyl)amide], the IC50 in assay [1] is 81 µM; in assay [2] (setting [5]), 0.4 µM; in assay [3], above 10 µM; in assay [4], 7 µM. `CCOC(Cn1ccc2ccc(C#CCc3ccccc3)cc2c1=O)OCC` [Example 66r, 2-(2,2-Diethoxy-ethyl)-7-(3-phenyl-prop-1-ynyl)-2H-isoquinolin-1-one]: the 50% inhibitory concentration (IC50) in assay [2] (setting [6]) was determined as 33 µM. For `CCOC(=O)CCn1ccc2ccc(C#CCc3ccccc3)cc2c1=O` [Example 66t, 3-[1-Oxo-7-(3-phenyl-prop-1-ynyl)-1H-isoquinolin-2-yl]-propionic acid ethyl ester], in assay [2] (setting [6]), the IC50 was above 100 µM. Turning to `COc1cc(CNC(=O)c2ccc3ccn(CCOc4ccccc4)c(=O)c3c2)ccn1` [Example 43, 1-oxo-2-(2-phenoxyethyl)-1,2-dihydroisoquinoline-7-carboxylic Acid (2-methoxypyridin-4-ylmethyl)amide], the 50% inhibitory concentration (IC50) in assay [2] (setting [5]) came to 3.8 µM. In the case of `COC(=O)CCn1ccc2ccc(C#CCc3ccccc3)cc2c1=O` [Example 66k, 3-[1-Oxo-7-(3-phenyl-prop-1-ynyl)-1H-isoquinolin-2-yl]-propionic acid methyl ester], the IC50 in assay [2] (setting [6]) was above 100 µM.

Take `O=c1c2cc(C#CCc3ccccc3)ccc2ccn1CCC1OCCCO1` [Example 66f, 2-(2-1,3-Dioxinan-2-yl-ethyl)-7-(3-phenyl-prop-1-ynyl)-2H-isoquinolin-1-one]: the IC50 in assay [2] (setting [6]) was above 30 µM. On the same count and under the same terms, the same measure for `CC(=O)OCCCCn1ccc2ccc(C#CCc3ccccc3)cc2c1=O` [Example 66l, Acetic acid 4-[1-oxo-7-(3-phenyl-prop-1-ynyl)-1H-isoquinolin-2-yl]-butyl ester]: 14 µM; for `O=c1c2cc(C#CCc3ccccc3)ccc2ccn1CC(CO)(CO)CO` [Example 66b, 2-(3-Hydroxy-2,2-bis-hydroxymethyl-propyl)-7-(3-phenyl-prop-1-ynyl)-2H-isoquinolin-1-one]: above 100 µM; for `CC(C)(CO)Cn1ccc2ccc(C#CCc3ccccc3)cc2c1=O` [Example 66y, 2-(3-Hydroxy-2,2-dimethyl-propyl)-7-(3-phenyl-prop-1-ynyl)-2H-isoquinolin-1-one]: 20 µM. Consider `N#CCCCCCCn1ccc2ccc(C#CCc3ccccc3)cc2c1=O` [Example 66aj, 7-[1-Oxo-7-(3-phenyl-prop-1-ynyl)-1H-isoquinolin-2-yl]-heptanenitrile], for which the IC50 in assay [2] (setting [6]) stood at 3.9 µM. Turning to `O=C(NCc1cncnc1)c1ccc2ccn(Cc3ccc(F)c(F)c3)c(=O)c2c1` [Example 26, 2-(3,4-difluorobenzyl)-1-oxo-1,2-dihydroisoquinoline-7-carboxylic Acid (pyrimidin-5-ylmethyl)-amide], in assay [2] (setting [5]), the IC50 stood at 12 µM. On to `O=C(O)c1ccc(Cn2ccc3ccc(C#CCc4ccccc4)cc3c2=O)cc1` [Example 1, 4-[1-Oxo-7-(3-phenyl-prop-1-ynyl)-1H-isoquinolin-2-ylmethyl]benzoic Acid], for which the 50% inhibitory concentration (IC50) in assay [2] (setting [7]) is 0.0018 µM. With `COc1cccc(CNC(=O)c2ccc3ccn(CCOc4ccccc4)c(=O)c3c2)c1` [Example 45, 1-oxo-2-(2-phenoxyethyl)-1,2-dihydroisoquinoline-7-carboxylic Acid 3-methoxybenzylamide], in assay [2] (setting [5]), the IC50 stood at 1.2 µM. As for `CCOC(=O)CCCCn1ccc2ccc(C#CCc3ccccc3)cc2c1=O` [Example 66s, 5-[1-Oxo-7-(3-phenyl-prop-1-ynyl)-1H-isoquinolin-2-yl]-pentanoic acid ethyl ester], the IC50 in assay [2] (setting [6]) was 8.7 µM.

In the case of `CS(=O)(=O)c1ccc(Cn2ccc3ccc(C#CCc4ccccc4)cc3c2=O)cc1` [Example 66o, 2-(4-Methanesulfonyl-benzyl)-7-(3-phenyl-prop-1-ynyl)-2H-isoquinolin-1-one], the IC50 in assay [2] (setting [6]) was 95 µM. `O=c1c2cc(C#CCc3ccccc3)ccc2ccn1Cc1cccc(Cl)c1` [Example 10, 2-(3-Chlorobenzyl)-7-(3-phenylprop-1-ynyl)-2H-isoquinolin-1-one]: the IC50 in assay [2] (setting [7]) was found to be 0.052 µM. Turning to `O=C(O)c1ccc(Cn2ccc3ccc(C#CCn4ccnn4)cc3c2=O)cc1` [4-[1-oxo-7-(3-[1,2,3]triazol-1-ylprop-1-ynyl)-1H-isoquinolin-2-ylmethyl]benzoic acid], the IC50 in assay [2] (hMMP-13CD, text b731, read-out: IC50 with hMMP-13CD) was above 50 µM. With `CC(C)(C)C(=O)Cn1ccc2ccc(C#CCc3ccccc3)cc2c1=O` [Example 66ae, 2-(3,3-Dimethyl-2-oxo-butyl)-7-(3-phenyl-prop-1-ynyl)-2H-isoquinolin-1-one], in assay [2] (setting [6]), the IC50 was 19 µM. Consider `CSc1ccc(CNC(=O)c2ccc3ccn(Cc4ccc(S(C)(=O)=O)cc4)c(=O)c3c2)cc1` [Example 56, 2-(4-methane-sulfonylbenzyl)-1-oxo-1,2-dihydro-isoquinoline-7-carboxylic Acid 4-methyl-sulfanylbenzylamide], for which the IC50 in assay [2] (setting [5]) stood at 2.2 µM. For the compound `COc1ccc(CNC(=O)c2ccc3ccn(CCOc4ccccc4)c(=O)c3c2)cc1` [Example 44, 1-oxo-2-(2-phenoxyethyl)-1,2-dihydroisoquinoline-7-carboxylic Acid 4-methoxybenzylamide], the half-maximal inhibitory concentration (IC50) in assay [2] (setting [5]) came to 7.5 µM. Regarding `CCOC(=O)CCCn1ccc2ccc(C#CCc3ccccc3)cc2c1=O` [Example 66aa, 4-[1-Oxo-7-(3-phenyl-prop-1-ynyl)-1H-isoquinolin-2-yl]-butyric acid ethyl ester], in assay [2] (setting [6]), the IC50 stood at 12 µM.

As for `N#Cc1ccc(Cn2ccc3ccc(C(=O)NCc4cccnc4)cc3c2=O)cc1` [Example 34, 2-(4-cyanobenzyl)-1-oxo-1,2-dihydro-isoquinoline-7-carboxylic acid (pyridin-3-ylmethyl)amide], the concentration for half-maximal inhibition (IC50) in assay [2] (setting [5]) is 3.4 µM.

For the compound `O=c1c2cc(C#CCc3ccccc3)ccc2ccn1CS(=O)(=O)c1ccccc1` [Example 66ad, 2-Benzenesulfonylmethyl-7-(3-phenyl-prop-1-ynyl)-2H-isoquinolin-1-one], the IC50 in assay [2] (setting [6]) is 20 µM. On the same count and under the same terms, the same measure for `O=c1c2cc(C#CCc3ccccc3)ccc2ccn1CCCCCCO` [Example 66ac, 2-(6-Hydroxy-hexyl)-7-(3-phenyl-prop-1-ynyl)-2H-isoquinolin-1-one]: 7.1 µM; for `O=c1c2cc(C#CCc3ccccc3)ccc2ccn1CC(F)(F)F` [Example 66ah, 7-(3-Phenyl-prop-1-ynyl)-2-(2,2,2-trifluoro-ethyl)-2H-isoquinolin-1-one]: 24 µM; for `N#CCCn1ccc2ccc(C#CCc3ccccc3)cc2c1=O` [Example 66d, 3-[1-Oxo-7-(3-phenyl-prop-1-ynyl)-1H-isoquinolin-2-yl]-propionitrile]: 4.8 µM. Same read-out and setting: the same measure for `O=c1c2cc(C#CCc3ccccc3)ccc2ccn1CC[S+]([O-])c1ccccc1` (centres unmarked) [Example 66z, 2-(2-Benzenesulfinyl-ethyl)-7-(3-phenyl-prop-1-ynyl)-2H-isoquinolin-1-one]: above 100 µM. As to `CS(=O)(=O)c1ccc(Cn2ccc3ccc(C(=O)NCc4ccncc4)cc3c2=O)cc1` [Example 49, 2-(4-methanesulfonylbenzyl)-1-oxo-1,2-dihydroisoquinoline-7-carboxylic Acid (pyridin-4-ylmethyl)amide], in assay [2] (setting [5]), the half-maximal inhibitory concentration (IC50) came out at 3.1 µM.
